The results in this text go back to article PMC12521527, “In vivo self-assembled nano-PROTAC for the dual degradation of AR and HSP90 to overcome castration-resistant prostate cancer resistance” (Signal Transduction and Targeted Therapy, 2025).

Numbered stars: 1 amine (or outer) side, 2 acyl side, 3 side chain; on linkers, the order of the positions; unused ones are H or OH. Square brackets hold non-standard residues; d marks the D form. Peptide text beside a SMILES is read from it. * marks the point of attachment. X2 = CC1(C)C(=O)N(c2ccc(C#N)c(C(F)(F)F)c2)C(=S)N1c1ccc(C(=O)*)c(F)c1; X1 = O=C1CCC(N2C(=O)c3cccc(N(CC(=O)[*:2])[*:1])c3C2=O)C(=O)N1; EuK = O=C(O)CC[C@H](NC(=O)N[C@@H](CCCCN*)C(=O)O)C(=O)O; 2Nal = N[C@@H](Cc1ccc2ccccc2c1)C(=O)O

The target of experiment [1] is PSMA protein (Homo sapiens, UniProt Q04609). Put plainly: MST binding affinity, Psa-AR and PSMA protein. Conditions: RED-NHS-labeled PSMA 400 nM, PBS-T (0.05% Tween 20), 22 °C, n = 3, read-out: Kd, binding affinity between Psa-AR and PSMA. As for the experimental part: Fig. 1 Protein-induced self-assembly behaviors of Psa-AR in vitro. a Six tissue samples from patients with prostate tumors (1–6) and six from patients with normal prostates (1’–6’) were obtained clinically. The expression of CRBN in these samples was analyzed by immunohistochemistry (IHC).
(§1) MST (NanoTemper Technologies GmbH, Munich, Germany) was utilized to evaluate the binding affinity between Psa-AR and RED-NHS-labeled PSMA, AR, or CRBN proteins. The PSMA, AR, and CRBN proteins were labeled with the Protein Labeling Kit RED-NHS 2nd Generation (Amine Reactive). RED-PSMA, RED-AR, and RED-CRBN proteins were diluted to a final concentration of 400 nM with PBS-T buffer (0.05% Tween 20), where the fluorescence signals satisfied the typical detection limit of the Monolith NT.115 instrument (NanoTemper Technologies). The binding affinity between Psa-AR and the RED-NHS-labeled AR protein was assessed. […] Then, 10 µL of RED-CRBN was added to each sample to achieve a final concentration of 400 nM. After incubation for 20 min, the samples were loaded into standard/premium-treated capillaries. All the experiments were performed at 22 °C. The data were analyzed by NanoTemper analysis software.

Experiment [2] deals with CRBN, with prebound AR (AR: Psa-AR: CRBN) (Homo sapiens, UniProt P10275+Q96SW2). The experiment in a line: MST binding of binary complex (Psa-AR: AR) to CRBN. The settings on record: binary complex Psa-AR: AR titrated against RED-CRBN 400 nM, 20 min incubation, 22 °C, n = 3, read-out: Kd, affinity for CRBN in the presence of prebound AR.
Description: Fig. 3 Polynary nanocomposite (AR: Psa-AR: CRBN) formation. a Dose‒response curve for the binding interaction between Psa-AR and the AR protein; n = 3 per group. b Dose‒response curve for the binding interaction between Psa-AR and the CRBN protein; n = 3 per group. c Dose‒response curve for the binding interaction between the binary complex (Psa-AR: AR) and CRBN, n = 3 per group. d In vitro Psa-AR self-assembly, protein binding and degradation. e Representative 22Rv1 cell CLSM images of FITC-labeled Psa-AR assembly (green channel) interacting with HSP90 (red channel) and its colocalization analysis (1–1’). […] Scale bar: 10 μm.
as §1, with “After incubation for 20 min, the samples were loaded into standard/premium-treated capillaries. All the experiments were performed at 22 °C.” left out

The test system of experiment [3] is 22Rv1 (PSMA^high) cells. The experiment in a line: Flow cytometry uptake of FITC-labeled conjugates in 22Rv1 cells. The settings on record: 40 µM, 24 h, n = 3. The experiment is classed as cell-based. On the procedure: Fig. 2 a Representative 22Rv1 cell CLSM images of FITC-labeled Psa-AR (40 μM) assembly (green channel) interacting with PSMA (red channel) and its colocalization analysis (1–1’). Scale bar: 10 μm. b Representative SEM images of 22Rv1 cells after treatment with Psa-AR (40 μM) for 4 h. Scale bar: 1 μm. Scale bar: 200 nm (zoom in). c Representative 22Rv1 cell CLSM images of FITC-labeled P-AR (40 μM) (green channel) interacting with PSMA (red channel). Scale bar: 10 μm. d Representative SEM images of 22Rv1 cells after treatment with P-AR (40 μM) for 4 h. Scale bar: 1 μm. Scale bar: 200 nm (zoom in). e The uptake of either Psa-AR or P-AR by 22Rv1 (PSMA^high) and RWPE-1 (PSMA^low) cells was examined by flow cytometry, followed by comprehensive quantitative analysis (f), n = 3 per group. g Representative 22Rv1 cell CLSM images of FITC-labeled Psa-AR assembly (green channel) with lysosomes (red channel) and colocalization analysis. Scale bar: 10 μm. h Representative CLSM images of 22Rv1 cells after incubation with FITC-labeled Psa-AR (green channel) for 12 h. […]
A total of 1 × 10^5 22Rv1 cells per well were seeded in 6-well plates in DMEM containing 10% fetal bovine serum and 1% penicillin‒streptomycin. […] Then, the cells were collected to evaluate fluorescence expression via flow cytometry. […] The cells were then collected and analyzed for fluorescence expression via flow cytometry.
A general note: Flow cytometry measures light scatter and fluorescence of single cells or particles in a stream.

Experiment [4] has as its system AR. Put plainly: Western blot AR degradation in 22Rv1 cells. It is filed as cell-based. As for the experimental part: (§2) All uncropped blots are presented in Supplementary Fig. 26. j, k Representative 22Rv1 cell CLSM images of the degradation of AR after incubation with FITC-labeled Psa-AR for 12 h and quantitative analysis, n = 3 per group. Scale bar: 10 μm. l, m Representative 22Rv1 cell CLSM images of the degradation of HSP90 after incubation with FITC-labeled Psa-AR for 12 h and quantitative analysis, n = 3 per group. Scale bar: 10 μm. n AR-V7 expression in 22Rv1 cells after treatment with PBS, P-AR (20 μM), Psa-AR (20 μM) or Psa-AR (20 μM) combined with MG132 (2 μM) for 48 h, as determined by western blotting. β-Actin was used as an internal reference. o Results of apoptosis in 22Rv1 cells treated with PBS, P-AR (20 μM), or Psa-AR (20 μM) for 48 h, as detected by flow cytometry.
The pretreated cells were resuspended in lysis buffer containing 50 mM Tris-HCl (pH 8.0), 150 mM NaCl, 1% (v/v) Triton X-100, and protease inhibitors. The protein concentration was determined via a BCA kit (Applygen). Each sample ([…]) was subjected to SDS‒PAGE and then transferred to a PVDF membrane. The blots were blocked in 5% (wt/v) blocking buffer. After washing three times with TBST buffer (10 mM TBS solution containing 0.1% (v/v) Tween-20), the blots were incubated with primary antibodies at 4 °C on a shaker for 16 h. After washing with TBST buffer three times, the blot was incubated with secondary antibodies at room temperature on a shaker for 2 h. After being washed three times with TBST buffer, the blots were subsequently scanned on a Typhoon Trio Variable Mode Imager.
In general terms: Immunoblotting shows a protein as a band on a membrane.

The test system of experiment [5] is HSP90. Put plainly: Western blot HSP90 degradation in 22Rv1 cells. The experiment is classed as cell-based. As for the experimental part: as §2
The pretreated cells were resuspended in lysis buffer containing 50 mM Tris-HCl (pH 8.0), 150 mM NaCl, 1% (v/v) Triton X-100, and protease inhibitors. The protein concentration was determined via a BCA kit (Applygen). Each sample ([…]) was subjected to SDS‒PAGE and then transferred to a PVDF membrane. The blots were blocked in 5% (wt/v) blocking buffer. After washing three times with TBST buffer (10 mM TBS solution containing 0.1% (v/v) Tween-20), the blots were incubated with primary antibodies at 4 °C on a shaker for 16 h. […]

Experiment [6] concerns 22Rv1 cells. The experiment is classed as cell-based. The settings on record: n = 6, read-out: IC50, cell viability.
[7] abbreviates: western blot, 22Rv1, 20 μM, 48 h.

PSMA protein, sequence (Q04609 whole entry): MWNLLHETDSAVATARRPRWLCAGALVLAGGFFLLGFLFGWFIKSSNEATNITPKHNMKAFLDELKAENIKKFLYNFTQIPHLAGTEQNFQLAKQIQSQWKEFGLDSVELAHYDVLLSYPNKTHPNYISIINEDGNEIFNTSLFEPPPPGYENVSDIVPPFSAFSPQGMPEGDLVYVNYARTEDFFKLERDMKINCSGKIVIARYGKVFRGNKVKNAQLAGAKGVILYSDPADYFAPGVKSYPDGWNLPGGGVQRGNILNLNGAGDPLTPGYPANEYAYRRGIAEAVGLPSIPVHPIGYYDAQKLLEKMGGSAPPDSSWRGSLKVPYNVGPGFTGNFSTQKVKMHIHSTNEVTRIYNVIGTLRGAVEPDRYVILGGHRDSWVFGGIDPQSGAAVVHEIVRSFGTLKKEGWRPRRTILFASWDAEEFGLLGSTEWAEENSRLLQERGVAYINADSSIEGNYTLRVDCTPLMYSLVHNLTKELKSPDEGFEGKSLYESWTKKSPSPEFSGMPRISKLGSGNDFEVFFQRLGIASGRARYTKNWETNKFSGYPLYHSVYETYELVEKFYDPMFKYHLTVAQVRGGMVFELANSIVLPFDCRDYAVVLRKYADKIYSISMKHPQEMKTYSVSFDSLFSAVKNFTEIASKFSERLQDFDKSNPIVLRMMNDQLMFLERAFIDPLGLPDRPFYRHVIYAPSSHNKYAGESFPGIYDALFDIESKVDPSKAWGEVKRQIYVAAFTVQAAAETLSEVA
CRBN, with prebound AR (AR: Psa-AR: CRBN), sequence (Q96SW2 whole entry): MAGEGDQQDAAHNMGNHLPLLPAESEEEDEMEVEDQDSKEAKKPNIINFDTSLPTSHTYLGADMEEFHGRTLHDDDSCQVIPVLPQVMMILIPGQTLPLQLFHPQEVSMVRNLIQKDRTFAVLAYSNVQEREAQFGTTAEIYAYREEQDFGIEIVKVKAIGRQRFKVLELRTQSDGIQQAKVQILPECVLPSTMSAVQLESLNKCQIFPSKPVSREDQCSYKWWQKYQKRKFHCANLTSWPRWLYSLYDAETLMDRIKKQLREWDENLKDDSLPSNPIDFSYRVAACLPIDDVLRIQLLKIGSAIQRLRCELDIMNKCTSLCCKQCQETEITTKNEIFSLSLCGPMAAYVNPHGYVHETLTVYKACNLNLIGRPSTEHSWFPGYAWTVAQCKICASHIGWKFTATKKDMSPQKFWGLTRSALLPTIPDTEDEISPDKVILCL
CRBN, with prebound AR (AR: Psa-AR: CRBN), sequence (P10275 whole entry): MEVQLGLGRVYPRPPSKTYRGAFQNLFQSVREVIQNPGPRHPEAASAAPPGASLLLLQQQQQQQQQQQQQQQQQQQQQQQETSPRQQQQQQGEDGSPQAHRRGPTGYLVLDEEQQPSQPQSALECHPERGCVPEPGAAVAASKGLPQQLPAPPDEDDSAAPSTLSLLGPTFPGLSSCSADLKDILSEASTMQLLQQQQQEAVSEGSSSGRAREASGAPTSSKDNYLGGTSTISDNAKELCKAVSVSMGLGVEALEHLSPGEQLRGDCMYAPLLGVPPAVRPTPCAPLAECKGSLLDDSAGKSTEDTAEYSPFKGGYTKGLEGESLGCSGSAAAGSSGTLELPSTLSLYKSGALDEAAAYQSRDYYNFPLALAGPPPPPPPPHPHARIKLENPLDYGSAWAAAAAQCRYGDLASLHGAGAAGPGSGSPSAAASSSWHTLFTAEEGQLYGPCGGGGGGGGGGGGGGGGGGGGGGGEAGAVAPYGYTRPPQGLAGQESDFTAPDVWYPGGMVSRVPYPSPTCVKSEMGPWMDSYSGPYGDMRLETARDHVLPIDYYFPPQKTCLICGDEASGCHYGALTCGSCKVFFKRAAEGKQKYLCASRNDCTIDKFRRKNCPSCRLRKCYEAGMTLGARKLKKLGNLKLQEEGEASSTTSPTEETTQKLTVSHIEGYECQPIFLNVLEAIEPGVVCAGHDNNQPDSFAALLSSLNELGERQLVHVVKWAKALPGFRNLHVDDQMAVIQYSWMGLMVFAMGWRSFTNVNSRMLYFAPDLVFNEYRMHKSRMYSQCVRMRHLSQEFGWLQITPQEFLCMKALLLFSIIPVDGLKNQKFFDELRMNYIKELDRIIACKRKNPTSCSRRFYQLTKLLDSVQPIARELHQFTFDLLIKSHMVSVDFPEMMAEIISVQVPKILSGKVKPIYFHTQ

Broadly, the Kd is the concentration at which binding is half-saturated. In general, DC50 refers to the midpoint of the concentration-degradation curve. Broadly, the IC50 is the concentration needed to halve the response being measured. As for `CC1(C)C(=O)N(c2ccc(C#N)c(C(F)(F)F)c2)C(=S)N1c1ccc(C(=O)NCCCC[C@H](NC(=O)CNc2cccc3c2C(=O)N(C2CCC(=O)NC2=O)C3=O)C(=O)N[C@@H](CS)C(=O)N[C@@H](CCC(N)=O)C(=O)N[C@@H](Cc2ccc(O)cc2)C(=O)N[C@@H](CC(N)=O)C(=O)N[C@@H](CCC(N)=O)C(=O)N[C@@H](Cc2ccc(O)cc2)C(=O)N[C@@H](Cc2ccc(O)cc2)C(=O)N[C@@H](Cc2ccc3ccccc3c2)C(=O)NCCCC[C@H](NC(=O)N[C@@H](CCC(=O)O)C(=O)O)C(=O)O)c(F)c1` (stereo partly shown) [Psa-AR] (H-[X1]K(X2)CQYNQYY[2Nal]-EuK), the Kd in experiment [1] was 7.2 nM. Besides, the Kd in experiment [2] is 1140 nM. Besides, the “uptake efficiency relative to nonassembling P-AR” value in experiment [3] amounted to 5 fold. Further, in experiment [4] (22Rv1, 20 μM, 12–96 h), the “AR protein knockdown maintained within 96-h observation period” value was “over 99%”. For the same molecule, the DC50 in experiment [4] (22Rv1 cell line, 1 to 100 μM, read-out: DC50 for AR protein degradation) was 9.45 µM. In experiment [4] (setting [7]), the “AR degradation compared with PBS controls” value was found to be 79% and the “enhancement of AR degradation over P-AR” value came out at 45%. The HSP90 degradation in experiment [5] (22Rv1, 20 μM, 48 h, western blot) was > 60%. In addition, in experiment [5] (22Rv1, optimal concentrations, 96 h), the “sustained HSP90 protein clearance over 96 h” value is listed as 78%. In addition, the IC50 in experiment [6] was found to be 10.9 ± 1.1 µM.
